Usually IC50 stands for the point on the concentration scale where inhibition reaches its midpoint. In general, Ki refers to the equilibrium dissociation constant of an inhibitor or competing ligand from its target.

In assay [1] the test system is REL-A (p65) nuclear translocation, HeLa cells. Briefly: REL-A (p65) nuclear translocation assay in HeLa cells (classical NF-kB signaling, TNF-α stimulated). In kind it is cell-based. As to conditions: Homo sapiens, 0.5 h; HeLa cells, 10 ng/mL TNF-α for 30 minutes; read-out: REL-A HeLa Transloc Assay (IC50). The procedure, abridged: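 HeLa cells were exposed to test compounds at various concentrations (0.2% DMSO final) in medium with 10% fetal bovine serum for 4.5 hours, then stimulated for 30 minutes with 10 ng/mL TNF-α. After fixation in 4% paraformaldehyde, 0.1% Triton X-100 permeabilization and staining with 400 ng/mL anti-REL-A (p65) antibody, Alexa488 secondary and DRAQ5, Opera imaging gave nuclear-to-cytoplasmic signal ratios to calculate IC50.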

Assay [2] has as its target nuclear factor-kappa B (NF-kB)-inducing kinase (NIK) (Homo sapiens (Human), UniProt Q99558). Description: NIK enzyme inhibition assay (Transcreener ADP, NIK ADP-FP). In kind it is biochemical. To be noted: purified NIK 0.5 nM, 10 μM ATP, fluorescence polarization; read-out: NIK ADP-FP (Ki μM).
Assay [3] concerns p52 (NF-kB2) nuclear translocation, HeLa cells. Description: p52 (NF-kB2) nuclear translocation assay in HeLa cells (non-classical NF-kB signaling, anti-lymphotoxin beta receptor antibody stimulated). Type of assay: cell-based. As to conditions: Homo sapiens, 100 ng/mL anti-lymphotoxin beta receptor antibody for 5 hours, read-out: p52 HeLa Transloc Assay (IC50). The procedure, abridged:
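HeLa cells in 10% FBS medium were treated with compound (0.2% DMSO final) and stimulated with 100 ng/mL anti-lymphotoxin beta receptor antibody for 5 h. Fixed cells were immunostained for p52 and imaged with DRAQ5 nuclear stain. Translocation is the nuclear to cytoplasmic intensity ratio, and IC50 values are in micromolar.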

Sequence of nuclear factor-kappa B (NF-kB)-inducing kinase (NIK) (Q99558 whole entry): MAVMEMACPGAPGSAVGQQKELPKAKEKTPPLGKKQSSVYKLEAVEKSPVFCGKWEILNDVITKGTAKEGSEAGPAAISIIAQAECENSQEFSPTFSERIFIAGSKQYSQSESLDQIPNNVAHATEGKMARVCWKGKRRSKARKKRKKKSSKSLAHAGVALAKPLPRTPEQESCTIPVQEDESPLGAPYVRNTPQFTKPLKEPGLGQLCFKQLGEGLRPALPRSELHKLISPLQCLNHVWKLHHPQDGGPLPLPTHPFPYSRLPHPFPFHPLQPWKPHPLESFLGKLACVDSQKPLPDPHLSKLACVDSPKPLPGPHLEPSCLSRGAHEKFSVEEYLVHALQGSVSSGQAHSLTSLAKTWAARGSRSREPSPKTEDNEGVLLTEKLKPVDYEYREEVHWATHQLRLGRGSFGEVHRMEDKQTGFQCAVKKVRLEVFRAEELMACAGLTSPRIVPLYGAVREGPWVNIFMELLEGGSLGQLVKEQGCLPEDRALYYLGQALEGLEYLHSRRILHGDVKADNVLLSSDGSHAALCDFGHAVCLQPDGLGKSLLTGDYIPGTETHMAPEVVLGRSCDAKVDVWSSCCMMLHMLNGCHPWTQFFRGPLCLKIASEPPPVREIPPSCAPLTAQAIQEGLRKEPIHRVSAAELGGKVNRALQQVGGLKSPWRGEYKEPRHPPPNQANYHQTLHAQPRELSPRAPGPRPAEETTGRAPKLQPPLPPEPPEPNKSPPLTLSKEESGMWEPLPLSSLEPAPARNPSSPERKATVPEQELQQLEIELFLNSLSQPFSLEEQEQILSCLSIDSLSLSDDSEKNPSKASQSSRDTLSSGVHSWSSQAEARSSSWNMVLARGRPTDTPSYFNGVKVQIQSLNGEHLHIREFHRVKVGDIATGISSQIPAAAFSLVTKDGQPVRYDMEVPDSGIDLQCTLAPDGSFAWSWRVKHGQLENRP

Regarding `CN1CC[C@@](O)(C#Cc2cccc(-c3nn(C(N)=O)c4ccccc34)c2)C1=O` [Compound 147, 3-[3-[2-[(3R)-3-hydroxy-1-methyl-2-oxo-pyrrolidin-3-yl]ethynyl]phenyl]indazole-1-carboxamide], the IC50 in assay [1] worked out at 20000 nM; in assay [3], 14.1 nM. Besides, the Ki in assay [2] was 0.324 nM.

As to `CN1CC[C@@](O)(C#Cc2cccc(-n3nc(C(N)=O)c4ccncc43)c2)C1=O` [Compound 148, 1-[3-[2-[(3R)-3-hydroxy-1-methyl-2-oxo-pyrrolidin-3-yl]ethynyl]phenyl]pyrazolo [3,4-c]pyridine-3-carboxamide], the IC50 was 20000 nM in assay [1] and 110 nM in assay [3]. In assay [2], the Ki was found to be 0.38 nM.

Turning to `Cc1cc2c(C(N)=O)nn(-c3cccc(C#C[C@]4(O)CCN(C)C4=O)c3)c2cn1` [Compound 149, 1-[3-[2-[(3R)-3-hydroxy-1-methyl-2-oxo-pyrrolidin-3-yl]ethynyl]phenyl]-5-methyl-pyrazolo[3,4-c]pyridine-3-carboxamide], the values for the IC50 in assay [1] and in assay [3] were 20000 nM and 215 nM, respectively. Also, the Ki in assay [2] came to 1.08 nM.

Turning to `COc1cc2c(C(N)=O)nn(-c3cccc(C#C[C@]4(O)CCN(C)C4=O)c3)c2cn1` [Compound 150, 1-[3-[2-[(3R)-3-hydroxy-1-methyl-2-oxo-pyrrolidin-3-yl]ethynyl]phenyl]-5-methoxy-pyrazolo[3,4-c]pyridine-3-carboxamide], the values for the IC50 in assay [1] and in assay [3] were 20000 nM and 57.3 nM, respectively. Also, the inhibition constant Ki in assay [2] is 0.29 nM.

On to `CN1CC[C@@](O)(C#Cc2cccc(-n3nc(C(N)=O)c4c3CCCN4)c2)C1=O` [Compound 151, 1-[3-[2-[(3R)-3-hydroxy-1-methyl-2-oxo-pyrrolidin-3-yl]ethynyl]phenyl]-4,5,6,7-tetra-hydropyrazolo[4,3-b]pyri-dine-3-carboxamide], for which the results for the IC50 in assay [1] and in assay [3] were 2000 nM and 1030 nM, respectively. For the same compound, the Ki in assay [2] is 3.96 nM.

Consider `Cc1cc(C#C[C@]2(O)CCN(C)C2=O)cc(-n2nc(C(N)=O)c3cccnc32)c1` [Compound 152, 1-[3-[2-[(3R)-3-hydroxy-1-methyl-2-oxo-pyrrolidin-3-yl]ethynyl]-5-methyl-phenyl] pyrazolo[3,4-b]pyridine-3-carboxamide], for which the IC50 came out at 20000 nM in assay [1] and 45.8 nM in assay [3]. Besides, the Ki in assay [2] amounted to 0.87 nM.

Regarding `CN1CC[C@@](O)(C#Cc2cccc(-n3nc(C(N)=O)c4ccc(Cl)nc43)c2)C1=O` [Compound 153, 6-chloro-1-[3-[2-[(3R)-3-hy-droxy-1-methyl-2-oxo-pyrroli-din-3-yl]ethynyl]phenyl] pyrazolo[3,4-b]pyridine-3-carboxamide], the IC50 in assay [1] is 2000 nM; in assay [3] it was 132 nM. In addition, in assay [2], the Ki stood at 0.52 nM.

Regarding `COc1ccc2c(C(N)=O)nn(-c3cccc(C#C[C@]4(O)CCN(C)C4=O)c3)c2n1` [Compound 154, 1-[3-[2-[(3R)-3-hydroxy-1-methyl-2-oxo-pyrrolidin-3-yl]ethynyl]phenyl]-6-methoxy-pyrazolo[3,4-b]pyridine-3-carboxamide], the IC50 in assay [1] turned out to be 2000 nM; in assay [3], 33.9 nM. Further, the Ki in assay [2] was determined as 0.05 nM.

For `CN1CC[C@@](O)(C#Cc2cccc(-n3nc(C(N)=O)c4ccc(N5CCOCC5)nc43)c2)C1=O` [Compound 155, 1-[3-[2-[(3R)-3-hydroxy-1-methyl-2-oxo-pyrrolidin-3-yl]ethynyl]phenyl]-6-morpho-lino-pyrazolo[3,4-b]pyri-dine-3-carboxamide], the 50% inhibitory concentration (IC50) in assay [1] was 20000 nM; in assay [3], 129 nM. Further, the Ki in assay [2] came to 0.26 nM.

Consider `CN1CC[C@@](O)(C#Cc2cccc(-n3nc(C(N)=O)c4ccc(-c5cnn(C)c5)nc43)c2)C1=O` [Compound 156, 1-[3-[2-[(3R)-3-hydroxy-1-methyl-2-oxo-pyrrolidin-3-yl]ethynyl]phenyl]-6-(1-meth-ylpyrazol-4-yl)pyrazolo[3,4-b] pyridine-3-carboxamide], for which the IC50 in assay [1] was 2000 nM; in assay [3], 95.7 nM. Further, in assay [2], the inhibitory constant (Ki) amounted to 0.09 nM.
